What was measured:
[1] = Cytotoxicity against human Fem-X cells; assay type: functional, cell-based; details: for IC50: Homo sapiens, Fem-X; for pIC50: fem-x
[2] = system: HeLa; assay: Cytotoxicity against human HeLa cells; assay type: functional, cell-based; details: for IC50: Homo sapiens, HeLa; for pIC50: hela

CC(=O)O[C@H]1C[C@H]2[C@@H](CC[C@@H]3CC4(CC[C@@]32C)OOC2(CCCCC2)OO4)[C@@H]2CC[C@H]([C@H](C)CCC(=O)N3CCCCC3)[C@@]12C
IC50 ([1]; read-out: pIC50 (converted)): 9.12 µM | IC50 ([2]; read-out: pIC50 (converted)): 7.24 µM

CCNC(=O)CC[C@H](C)[C@H]1CC[C@H]2[C@@H]3CC[C@@H]4CC5(CC[C@]4(C)[C@H]3C[C@H](OC(C)=O)[C@]12C)OOC1(CCC(CC)CC1)OO5 (stereo partly specified)
IC50 ([1]; read-out: IC50): 6.7 µM | IC50 ([1]; read-out: pIC50 (converted)): 8.91 µM | IC50 ([2]; read-out: IC50): 6.9 µM | IC50 ([2]; read-out: pIC50 (converted)): 6.92 µM

CCC1CCC2(CC1)OOC1(CC[C@@]3(C)[C@H](CC[C@@H]4[C@@H]3C[C@H](OC(C)=O)[C@]3(C)[C@@H]([C@@H](C)CCC(=O)NC)CC[C@@H]43)C1)OO2 (stereo partly specified)
IC50 ([1]; read-out: IC50): 5 µM | IC50 ([1]; read-out: pIC50 (converted)): 4.47 µM | IC50 ([2]; read-out: IC50): 6.1 µM | IC50 ([2]; read-out: pIC50 (converted)): 6.76 µM

CC(=O)O[C@H]1C[C@H]2[C@@H](CC[C@@H]3C[C@]4(CC[C@@]32C)OO[C@]2(CC[C@@]3(C)[C@H](CC[C@@H]5[C@@H]3C[C@H](OC(C)=O)[C@]3(C)[C@@H]([C@H](C)CCC(=O)N6CCCCC6)CC[C@@H]53)C2)OO4)[C@@H]2CC[C@H]([C@H](C)CCC(=O)N3CCCCC3)[C@@]12C
IC50 ([1]; read-out: pIC50 (converted)): 102 µM | IC50 ([2]; read-out: pIC50 (converted)): 120 µM

COC(=O)CC[C@@H](C)[C@H]1CC[C@H]2[C@@H]3CC[C@@H]4CC5(CC[C@]4(C)[C@H]3C[C@H](OC(C)=O)[C@]12C)OOC1(CCC2(CCCCCCC2)CC1)OO5
IC50 ([1]; read-out: pIC50 (converted)): 51.3 µM | IC50 ([2]; read-out: pIC50 (converted)): 10.2 µM

CCCN(CCC)C(=O)CC[C@@H](C)[C@H]1CC[C@H]2[C@@H]3CC[C@@H]4C[C@]5(CC[C@]4(C)[C@H]3C[C@H](OC(C)=O)[C@]12C)OO[C@@]1(CC[C@@]2(C)[C@H](CC[C@@H]3[C@@H]2C[C@H](OC(C)=O)[C@]2(C)[C@@H]([C@H](C)CCC(=O)N(CCC)CCC)CC[C@@H]32)C1)OO5
IC50 ([1]; read-out: pIC50 (converted)): 47.9 µM | IC50 ([2]; read-out: pIC50 (converted)): 105 µM

CC(=O)O[C@H]1C[C@H]2[C@@H](CC[C@@H]3C[C@]4(CC[C@@]32C)OO[C@@]2(CC[C@@]3(C)[C@H](CC[C@@H]5[C@@H]3C[C@H](OC(C)=O)[C@]3(C)[C@@H]([C@H](C)CCC=O)CC[C@@H]53)C2)OO4)[C@@H]2CC[C@H]([C@H](C)CCC=O)[C@@]12C
IC50 ([1]; read-out: pIC50 (converted)): 3.09 µM | IC50 ([2]; read-out: pIC50 (converted)): 3.72 µM

CN(C)CCNC(=O)C1CCC2(CC1)OOC1(CCCCC1)OO2
IC50 ([1]; read-out: pIC50 (converted)): 120 µM | IC50 ([2]; read-out: pIC50 (converted)): 135 µM

CCCNC(=O)C1CCC2(CC1)OOC1(CCCCC1)OO2
IC50 ([1]; read-out: pIC50 (converted)): 102 µM | IC50 ([2]; read-out: pIC50 (converted)): 117 µM

CCNC(=O)CC[C@@H](C)[C@H]1CC[C@H]2[C@@H]3CC[C@@H]4CC5(CC[C@]4(C)[C@H]3C[C@H](OC(C)=O)[C@]12C)OOC1(CCC(CC)CC1)OO5 (stereo partly specified)
IC50 ([1]; read-out: IC50): 7 µM | IC50 ([1]; read-out: pIC50 (converted)): 6.76 µM | IC50 ([2]; read-out: IC50): 6.7 µM | IC50 ([2]; read-out: pIC50 (converted)): 6.92 µM

NC(=O)C1CCC2(CC1)OOC1(CCCCC1)OO2
IC50 ([1]; read-out: pIC50 (converted)): 120 µM | IC50 ([2]; read-out: pIC50 (converted)): 115 µM

CC(=O)O[C@H]1C[C@H]2[C@@H](CC[C@@H]3C[C@]4(CC[C@@]32C)OO[C@@]2(CC[C@@]3(C)[C@H](CC[C@@H]5[C@@H]3C[C@H](OC(C)=O)[C@]3(C)[C@@H]([C@H](C)CCC(=O)O)CC[C@@H]53)C2)OO4)[C@@H]2CC[C@H]([C@H](C)CCC(=O)O)[C@@]12C
IC50 ([1]; read-out: pIC50 (converted)): 4.17 µM | IC50 ([2]; read-out: pIC50 (converted)): 5.25 µM

COC(=O)CC[C@@H](C)[C@H]1CC[C@H]2[C@@H]3CC[C@@H]4CC5(CC[C@]4(C)[C@H]3C[C@H](OC(C)=O)[C@]12C)OOC1(CCC(C)CC1)OO5 (stereo in doubt; 13)
pIC50 [1]: 4.13 | pIC50 [2]: 4.96

O=C(O)C1CCC2(CC1)OOC1(CCCCC1)OO2
IC50 ([1]; read-out: pIC50 (converted)): 155 µM | IC50 ([2]; read-out: pIC50 (converted)): 120 µM

CCCNC(=O)CC[C@@H](C)[C@H]1CC[C@H]2[C@@H]3CC[C@@H]4C[C@]5(CC[C@]4(C)[C@H]3C[C@H](OC(C)=O)[C@]12C)OO[C@]1(CC[C@@]2(C)[C@H](CC[C@@H]3[C@@H]2C[C@H](OC(C)=O)[C@]2(C)[C@@H]([C@H](C)CCC(=O)NCCC)CC[C@@H]32)C1)OO5
IC50 ([1]; read-out: pIC50 (converted)): 25.7 µM | IC50 ([2]; read-out: pIC50 (converted)): 8.32 µM

COC(=O)CC[C@@H](C)[C@H]1CC[C@H]2[C@@H]3CC[C@@H]4CC5(CC[C@]4(C)[C@H]3C[C@H](OC(C)=O)[C@]12C)OOC1(CCC2(CCCC2)CC1)OO5
IC50 ([1]; read-out: pIC50 (converted)): 42.7 µM | IC50 ([2]; read-out: pIC50 (converted)): 10.7 µM

CC(=O)O[C@H]1C[C@H]2[C@@H](CC[C@@H]3C[C@]4(CC[C@@]32C)OO[C@]2(CC[C@@]3(C)[C@H](CC[C@@H]5[C@@H]3C[C@H](OC(C)=O)[C@]3(C)[C@@H]([C@H](C)CCC(=O)O)CC[C@@H]53)C2)OO4)[C@@H]2CC[C@H]([C@H](C)CCC(=O)O)[C@@]12C
IC50 ([1]; read-out: pIC50 (converted)): 7.59 µM | IC50 ([2]; read-out: pIC50 (converted)): 9.12 µM

COC(=O)CNC(=O)CC[C@@H](C)[C@H]1CC[C@H]2[C@@H]3CC[C@@H]4C[C@]5(CC[C@]4(C)[C@H]3C[C@H](OC(C)=O)[C@]12C)OO[C@]1(CC[C@@]2(C)[C@H](CC[C@@H]3[C@@H]2C[C@H](OC(C)=O)[C@]2(C)[C@@H]([C@H](C)CCC(=O)NCC(=O)OC)CC[C@@H]32)C1)OO5
IC50 ([1]; read-out: pIC50 (converted)): 4.68 µM | IC50 ([2]; read-out: pIC50 (converted)): 3.63 µM

CC(=O)O[C@H]1C[C@H]2[C@@H](CC[C@@H]3CC4(CC[C@@]32C)OOC2(CCCCC2)OO4)[C@@H]2CC[C@H]([C@H](C)CCC(N)=O)[C@@]12C
IC50 ([1]; read-out: pIC50 (converted)): 6.03 µM | IC50 ([2]; read-out: pIC50 (converted)): 5.25 µM

COC(=O)CC[C@@H](C)[C@H]1CC[C@H]2[C@@H]3CC[C@@H]4CC5(CC[C@]4(C)[C@H]3C[C@H](OC(C)=O)[C@]12C)OOC1(CCCCC1)OO5
IC50 ([1]; read-out: pIC50 (converted)): 52.5 µM | IC50 ([2]; read-out: pIC50 (converted)): 18.6 µM

CCC1CCC2(CC1)OOC1(CC[C@@]3(C)[C@H](CC[C@@H]4[C@@H]3C[C@H](OC(C)=O)[C@]3(C)[C@@H]([C@H](C)CCC(N)=O)CC[C@@H]43)C1)OO2 (stereo partly specified)
IC50 ([1]; read-out: IC50): 4.3 µM | IC50 ([1]; read-out: pIC50 (converted)): 5.01 µM | IC50 ([2]; read-out: IC50): 5.3 µM | IC50 ([2]; read-out: pIC50 (converted)): 5.25 µM

COC(=O)CC[C@@H](C)[C@H]1CC[C@H]2[C@@H]3CC[C@@H]4C[C@]5(CC[C@]4(C)[C@H]3C[C@H](OC(C)=O)[C@]12C)OO[C@]1(CC[C@@]2(C)[C@H](CC[C@@H]3[C@@H]2C[C@H](OC(C)=O)[C@]2(C)[C@@H]([C@H](C)CCC(=O)OC)CC[C@@H]32)C1)OO5
IC50 ([1]; read-out: pIC50 (converted)): 19.5 µM | IC50 ([2]; read-out: pIC50 (converted)): 20.4 µM

CCCNC(=O)CC[C@@H](C)[C@H]1CC[C@H]2[C@@H]3CC[C@@H]4C[C@]5(CC[C@]4(C)[C@H]3C[C@H](OC(C)=O)[C@]12C)OO[C@@]1(CC[C@@]2(C)[C@H](CC[C@@H]3[C@@H]2C[C@H](OC(C)=O)[C@]2(C)[C@@H]([C@H](C)CCC(=O)NCCC)CC[C@@H]32)C1)OO5
IC50 ([1]; read-out: pIC50 (converted)): 22.9 µM | IC50 ([2]; read-out: pIC50 (converted)): 33.1 µM

CCCNC(=O)CC[C@@H](C)[C@H]1CC[C@H]2[C@@H]3CC[C@@H]4CC5(CC[C@]4(C)[C@H]3C[C@H](OC(C)=O)[C@]12C)OOC1(CCCCC1)OO5
IC50 ([1]; read-out: pIC50 (converted)): 13.2 µM | IC50 ([2]; read-out: pIC50 (converted)): 6.46 µM

CCC1CCC2(CC1)OOC1(CC[C@@]3(C)[C@H](CC[C@@H]4[C@@H]3C[C@H](OC(C)=O)[C@]3(C)[C@@H]([C@H](C)CCC(=O)NC)CC[C@@H]43)C1)OO2 (stereo partly specified)
IC50 ([1]; read-out: IC50): 8.82 µM | IC50 ([1]; read-out: pIC50 (converted)): 6.92 µM | IC50 ([2]; read-out: IC50): 6.9 µM | IC50 ([2]; read-out: pIC50 (converted)): 4.9 µM

CC(=O)O[C@H]1C[C@H]2[C@@H](CC[C@@H]3CC4(CC[C@@]32C)OOC2(CCCCC2)OO4)[C@@H]2CC[C@H]([C@H](C)CCC(=O)O)[C@@]12C
IC50 ([1]; read-out: pIC50 (converted)): 25.1 µM | IC50 ([2]; read-out: pIC50 (converted)): 6.92 µM

CC(=O)O[C@H]1C[C@H]2[C@@H](CC[C@@H]3C[C@]4(CC[C@@]32C)OO[C@@]2(CC[C@@]3(C)[C@H](CC[C@@H]5[C@@H]3C[C@H](OC(C)=O)[C@]3(C)[C@@H]([C@H](C)CCC(=O)N6CCCCC6)CC[C@@H]53)C2)OO4)[C@@H]2CC[C@H]([C@H](C)CCC(=O)N3CCCCC3)[C@@]12C
IC50 ([1]; read-out: pIC50 (converted)): 79.4 µM | IC50 ([2]; read-out: pIC50 (converted)): 89.1 µM

CCC1CCC2(CC1)OOC1(CC[C@@]3(C)[C@H](CC[C@@H]4[C@@H]3C[C@H](OC(C)=O)[C@]3(C)[C@@H]([C@@H](C)CCC(N)=O)CC[C@@H]43)C1)OO2 (stereo partly specified)
IC50 ([1]; read-out: IC50): 4.5 µM | IC50 ([1]; read-out: pIC50 (converted)): 4.27 µM | IC50 ([2]; read-out: IC50): 4.9 µM | IC50 ([2]; read-out: pIC50 (converted)): 4.07 µM

CCCN(CCC)C(=O)CC[C@@H](C)[C@H]1CC[C@H]2[C@@H]3CC[C@@H]4CC5(CC[C@]4(C)[C@H]3C[C@H](OC(C)=O)[C@]12C)OOC1(CCCCC1)OO5
IC50 ([1]; read-out: pIC50 (converted)): 38.9 µM | IC50 ([2]; read-out: pIC50 (converted)): 28.2 µM

CC(=O)O[C@H]1C[C@H]2[C@@H](CC[C@@H]3C[C@]4(CC[C@@]32C)OO[C@]2(CC[C@@]3(C)[C@H](CC[C@@H]5[C@@H]3C[C@H](OC(C)=O)[C@]3(C)[C@@H]([C@H](C)CCC(N)=O)CC[C@@H]53)C2)OO4)[C@@H]2CC[C@H]([C@H](C)CCC(N)=O)[C@@]12C
IC50 ([1]; read-out: pIC50 (converted)): 6.17 µM | IC50 ([2]; read-out: pIC50 (converted)): 6.03 µM

COC(=O)C1CCC2(CC1)OOC1(CCCCC1)OO2
IC50 ([1]; read-out: pIC50 (converted)): 72.4 µM | IC50 ([2]; read-out: pIC50 (converted)): 75.9 µM

COC(=O)CC[C@@H](C)[C@H]1CC[C@H]2[C@@H]3CC[C@@H]4CC5(CC[C@]4(C)[C@H]3C[C@H](OC(C)=O)[C@]12C)OOC1(CCC(C)CC1)OO5 (stereo in doubt; 14)
pIC50 [1]: 4.6 | pIC50 [2]: 5.3

Source: ChEMBL document CHEMBL1250502, “An alignment independent 3D QSAR study of the antiproliferative activity of 1,2,4,5-tetraoxanes” (Eur J Med Chem, 2010)
